# Test results from ChEMBL document CHEMBL1201862, “PubChem BioAssay data set” (2004).
# Activity calls are given as the source filed them.
# Columns and labels:
# [1] = blockers of bursicon-stimulated LGR2 cAMP reporter – cell-based, HEK293, CRE-luciferase reporter, cherry pick, set 2, dose response (AID 743343); type: functional;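 further: transfected cells were stimulated with diluted bursicon conditioned medium after compound addition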
# [2] = blockade of melanocortin 4 receptor signaling – cell-based, plate reader, cherry pick, counter-screen for LGR2 antagonist project, dose response (AID 743444); type: functional;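 further: transfected HEK 293 cells stimulated with alpha-MSH peptide; potency of inhibitors of the alpha-MSH evoked signal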
# [3] = biological target: T1, Mannose-6-phosphate isomerase (Homo sapiens, UniProt P34949); test: MPI inhibition at elevated mannose 6-phosphate – biochemical, fluorescence intensity, high mannose 6-phosphate, primary screen (AID 1220)
# T1 sequence (P34949 whole entry): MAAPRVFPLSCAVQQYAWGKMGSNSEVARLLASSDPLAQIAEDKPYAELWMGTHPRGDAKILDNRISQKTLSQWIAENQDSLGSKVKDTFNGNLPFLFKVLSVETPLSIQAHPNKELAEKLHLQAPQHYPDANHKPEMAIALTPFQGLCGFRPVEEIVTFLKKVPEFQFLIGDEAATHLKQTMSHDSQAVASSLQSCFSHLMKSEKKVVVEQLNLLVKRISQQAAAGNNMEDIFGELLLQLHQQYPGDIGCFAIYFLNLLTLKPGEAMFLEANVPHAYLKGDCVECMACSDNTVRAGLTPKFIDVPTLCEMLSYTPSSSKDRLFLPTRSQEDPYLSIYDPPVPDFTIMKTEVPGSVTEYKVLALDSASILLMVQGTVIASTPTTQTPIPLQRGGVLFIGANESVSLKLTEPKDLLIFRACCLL
# cells [4] = type: functional, cell-based
# cells [5] = type: functional, cell-based; remark: listed apart in the source
# Leucine aminopeptidase = biological target: T2, Leucine aminopeptidase (Plasmodium falciparum 3D7, UniProt Q8IL11); test: P. falciparum M17LAP inhibitors, primary screen, biochemical, fluorogenic H-Leu-NHMec substrate, 1536-well (AID 1619); type: functional
# T2 sequence (Q8IL11 whole entry): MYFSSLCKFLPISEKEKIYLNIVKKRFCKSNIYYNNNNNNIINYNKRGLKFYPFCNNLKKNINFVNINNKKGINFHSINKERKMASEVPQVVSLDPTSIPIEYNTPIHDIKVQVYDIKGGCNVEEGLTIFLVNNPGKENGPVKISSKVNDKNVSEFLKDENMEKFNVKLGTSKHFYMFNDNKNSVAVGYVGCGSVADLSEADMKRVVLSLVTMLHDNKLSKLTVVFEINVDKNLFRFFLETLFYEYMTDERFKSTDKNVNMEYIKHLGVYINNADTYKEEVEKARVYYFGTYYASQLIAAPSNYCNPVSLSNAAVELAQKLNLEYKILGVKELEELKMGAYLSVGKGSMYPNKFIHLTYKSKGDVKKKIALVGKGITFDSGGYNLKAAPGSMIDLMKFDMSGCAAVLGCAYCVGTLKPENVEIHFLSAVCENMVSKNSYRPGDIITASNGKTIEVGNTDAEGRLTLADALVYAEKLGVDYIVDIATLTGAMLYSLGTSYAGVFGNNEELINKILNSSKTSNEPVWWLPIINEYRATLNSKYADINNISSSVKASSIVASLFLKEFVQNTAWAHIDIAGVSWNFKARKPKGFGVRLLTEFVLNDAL
# [6] = biological target: T3, RNA-binding protein pos-1 (Caenorhabditis elegans, UniProt G5EF15); test: disruptors of C. elegans POS-1 RNA interaction – biochemical, fluorescence polarization, dose response (AID 1964);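 further: purified POS-1 fused to maltose binding protein made in E. coli; potency of compounds blocking POS-1 binding to fluorescent RNA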
# T3 sequence (G5EF15 whole entry): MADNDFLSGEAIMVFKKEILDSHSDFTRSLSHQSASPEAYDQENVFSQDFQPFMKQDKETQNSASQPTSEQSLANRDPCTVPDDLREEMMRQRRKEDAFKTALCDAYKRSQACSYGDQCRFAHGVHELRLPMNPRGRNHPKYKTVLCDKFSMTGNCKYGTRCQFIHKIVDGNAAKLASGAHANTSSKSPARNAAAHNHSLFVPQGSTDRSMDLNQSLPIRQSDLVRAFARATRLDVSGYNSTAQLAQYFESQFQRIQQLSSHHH
# [7] = biological target: T4, Zinc finger protein mex-5 (Caenorhabditis elegans, UniProt Q9XUB2); test: potency of MEX-5 RNA-binding blockers – biochemical, C. elegans, fluorescence polarization, dose response (AID 1960)
# T4 sequence (Q9XUB2 whole entry): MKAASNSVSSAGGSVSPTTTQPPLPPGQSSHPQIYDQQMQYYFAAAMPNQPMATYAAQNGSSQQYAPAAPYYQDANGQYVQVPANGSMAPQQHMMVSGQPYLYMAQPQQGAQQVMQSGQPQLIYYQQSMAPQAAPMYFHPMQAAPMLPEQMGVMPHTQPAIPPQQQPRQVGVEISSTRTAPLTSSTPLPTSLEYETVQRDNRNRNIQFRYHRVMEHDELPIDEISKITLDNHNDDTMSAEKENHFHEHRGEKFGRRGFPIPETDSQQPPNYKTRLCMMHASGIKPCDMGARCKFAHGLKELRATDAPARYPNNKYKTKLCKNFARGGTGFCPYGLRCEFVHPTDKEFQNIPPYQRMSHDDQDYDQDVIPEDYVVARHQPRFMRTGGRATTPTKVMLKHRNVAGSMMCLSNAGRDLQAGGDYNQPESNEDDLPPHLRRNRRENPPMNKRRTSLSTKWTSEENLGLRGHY
# cells [8] = type: functional, cell-based; remark: listed apart in the source
# [9] = biological target: T5, Trace amine-associated receptor 1 (Homo sapiens, UniProt Q96RJ0); test: Fluorescence-based cell-based high throughput dose response assay to identify agonists of the human trace amine associated receptor 1 (TAAR1).; type: functional
# T5 sequence (Q96RJ0 whole entry): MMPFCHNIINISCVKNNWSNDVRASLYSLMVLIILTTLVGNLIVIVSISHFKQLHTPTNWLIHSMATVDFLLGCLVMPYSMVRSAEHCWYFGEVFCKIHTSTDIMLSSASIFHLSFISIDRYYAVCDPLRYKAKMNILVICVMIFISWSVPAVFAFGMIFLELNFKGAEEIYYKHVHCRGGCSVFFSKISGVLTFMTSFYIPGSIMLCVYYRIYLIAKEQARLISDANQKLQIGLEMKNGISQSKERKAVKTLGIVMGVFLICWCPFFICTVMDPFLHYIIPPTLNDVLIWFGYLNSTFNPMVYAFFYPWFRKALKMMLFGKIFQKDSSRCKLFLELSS
# [10] = biological target: T5, Trace amine-associated receptor 1; test: Counterscreen for agonists of the human trace amine associated receptor 1 (hTAAR1): Fluorescence-based cell-based high throughput dose response assay to identify hTAAR1 agonist that also desensitize TAAR1 receptor response.; type: functional
# cells [11] = type: functional, cell-based; remark: listed apart in the source
# [12] = biological target: T6, Replicative DNA helicase DnaB (Mycobacterium tuberculosis, UniProt P9WMR3); test: DnaB intein splicing inhibitors, dose response, biochemical, cell-free fluorescence (AID 449749); type: functional
# T6 sequence (P9WMR3 whole entry): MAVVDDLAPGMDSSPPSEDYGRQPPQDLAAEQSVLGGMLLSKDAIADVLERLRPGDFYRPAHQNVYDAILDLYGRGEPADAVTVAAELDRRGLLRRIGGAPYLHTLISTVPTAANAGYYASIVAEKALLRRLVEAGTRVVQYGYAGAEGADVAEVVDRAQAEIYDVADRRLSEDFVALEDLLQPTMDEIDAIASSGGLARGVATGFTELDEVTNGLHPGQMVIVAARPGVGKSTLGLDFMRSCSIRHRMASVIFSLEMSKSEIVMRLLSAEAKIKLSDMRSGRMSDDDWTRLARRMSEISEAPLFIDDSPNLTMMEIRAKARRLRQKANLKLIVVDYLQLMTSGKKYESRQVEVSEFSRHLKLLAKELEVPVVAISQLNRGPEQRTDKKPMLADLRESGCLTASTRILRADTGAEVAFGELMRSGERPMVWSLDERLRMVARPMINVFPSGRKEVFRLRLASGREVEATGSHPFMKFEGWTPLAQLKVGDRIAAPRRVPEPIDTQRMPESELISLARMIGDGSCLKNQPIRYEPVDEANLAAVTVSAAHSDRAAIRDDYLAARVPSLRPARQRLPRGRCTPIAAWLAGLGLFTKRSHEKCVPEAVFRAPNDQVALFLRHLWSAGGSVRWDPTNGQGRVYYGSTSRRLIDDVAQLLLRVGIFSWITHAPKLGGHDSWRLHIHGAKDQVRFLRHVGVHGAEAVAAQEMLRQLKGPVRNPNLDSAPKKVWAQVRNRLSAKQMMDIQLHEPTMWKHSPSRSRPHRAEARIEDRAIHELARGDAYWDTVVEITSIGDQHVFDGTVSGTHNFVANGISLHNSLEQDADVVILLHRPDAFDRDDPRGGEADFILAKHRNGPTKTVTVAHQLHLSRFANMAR
# Protein RecA = biological target: T7, Protein RecA (Mycobacterium tuberculosis, UniProt P9WHJ3); test: Fluorescence Cell-Free Homogeneous Dose Retest to Identify Inhibitors of RecA-Intein Splicing Activity. [Related pubchem assays (depositor defined):AID2097, AID2223, AID489010, AID492950]; type: functional
# T7 sequence (P9WHJ3 whole entry): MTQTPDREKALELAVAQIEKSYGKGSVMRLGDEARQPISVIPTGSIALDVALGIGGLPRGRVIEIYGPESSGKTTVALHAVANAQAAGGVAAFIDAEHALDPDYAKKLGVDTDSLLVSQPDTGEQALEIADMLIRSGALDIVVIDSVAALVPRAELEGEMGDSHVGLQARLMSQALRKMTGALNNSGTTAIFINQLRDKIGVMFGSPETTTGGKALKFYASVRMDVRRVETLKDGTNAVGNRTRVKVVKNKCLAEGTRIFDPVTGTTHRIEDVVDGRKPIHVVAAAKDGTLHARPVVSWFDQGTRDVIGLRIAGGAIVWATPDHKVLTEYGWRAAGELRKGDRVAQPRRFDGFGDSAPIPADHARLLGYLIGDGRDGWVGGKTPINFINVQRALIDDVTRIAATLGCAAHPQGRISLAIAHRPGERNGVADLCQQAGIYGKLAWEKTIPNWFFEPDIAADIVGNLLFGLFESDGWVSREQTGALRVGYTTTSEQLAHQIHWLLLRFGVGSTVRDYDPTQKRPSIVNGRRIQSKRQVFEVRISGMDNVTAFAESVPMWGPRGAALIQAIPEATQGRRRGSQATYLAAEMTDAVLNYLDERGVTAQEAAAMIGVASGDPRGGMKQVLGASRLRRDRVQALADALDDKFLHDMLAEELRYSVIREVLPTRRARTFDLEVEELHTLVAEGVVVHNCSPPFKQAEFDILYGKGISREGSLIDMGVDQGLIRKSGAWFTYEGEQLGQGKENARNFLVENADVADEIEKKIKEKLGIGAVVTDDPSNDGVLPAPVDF
# H9c2 = test: cells; type: functional, cell-based; details: Rattus norvegicus, H9c2, Myocardium;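 further: confirmatory concentration-response retest of ultra-high-throughput screening hits for modulation of myocardial damage; cell death induced by hydrogen peroxide oxidative stress; compound pretreatment for 60 min then peroxide exposure for 2 h; potency is for protecting the cells against peroxide damage rather than for killing them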
# Genome polyprotein = Genome polyprotein (dengue virus type 2, UniProt P29990); test: flavivirus cap methylation enzyme inhibition – biochemical, confirmation dose response, primary screen (AID 588689); type: functional
# Chain of Genome polyprotein (P29990 2492-3391 limits assumed): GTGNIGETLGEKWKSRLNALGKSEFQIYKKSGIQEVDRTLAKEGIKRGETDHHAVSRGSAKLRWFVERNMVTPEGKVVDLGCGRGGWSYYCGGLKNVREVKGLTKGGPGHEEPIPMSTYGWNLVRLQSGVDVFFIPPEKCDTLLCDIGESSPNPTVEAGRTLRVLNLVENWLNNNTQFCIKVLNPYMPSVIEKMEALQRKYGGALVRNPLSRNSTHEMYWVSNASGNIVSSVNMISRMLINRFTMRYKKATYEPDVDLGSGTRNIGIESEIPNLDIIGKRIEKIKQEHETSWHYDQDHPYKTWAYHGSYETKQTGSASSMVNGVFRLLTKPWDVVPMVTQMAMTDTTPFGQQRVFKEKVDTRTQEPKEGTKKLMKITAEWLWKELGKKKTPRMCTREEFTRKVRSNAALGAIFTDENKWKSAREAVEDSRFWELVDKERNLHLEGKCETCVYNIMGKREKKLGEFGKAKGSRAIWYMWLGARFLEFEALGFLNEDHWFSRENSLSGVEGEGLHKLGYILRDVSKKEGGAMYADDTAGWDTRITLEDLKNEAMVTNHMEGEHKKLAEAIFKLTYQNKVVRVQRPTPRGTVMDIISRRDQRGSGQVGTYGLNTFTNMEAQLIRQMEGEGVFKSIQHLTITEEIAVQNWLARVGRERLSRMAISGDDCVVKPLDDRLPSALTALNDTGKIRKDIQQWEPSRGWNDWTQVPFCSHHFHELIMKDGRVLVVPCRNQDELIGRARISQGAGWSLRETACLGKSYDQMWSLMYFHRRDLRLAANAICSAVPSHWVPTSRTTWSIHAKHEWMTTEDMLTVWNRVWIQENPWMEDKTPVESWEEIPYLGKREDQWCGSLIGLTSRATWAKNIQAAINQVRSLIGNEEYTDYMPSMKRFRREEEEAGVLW
structure (smiles),measurement,setting,value
Cc1ccc(-c2cc(C(=O)N3CCOCC3)no2)cc1,AC50,[1],2.95 µM (active)
same,AC50,[2],2.81 µM (active)
COc1ccc(O)c(/C=N/c2sc(C)c(C)c2C#N)c1,IC50,[3],> 50 µM (not active)
O=C1OCc2cc(NC(=O)C34CC5CC(CC(C5)C3)C4)ccc21,EC50,cells [4],> 350 µM (not active)
same,EC50,cells [5],> 350 µM (not active)
N#Cc1cccc(NC(=O)CN2NS(=O)(=O)c3ccccc3C2=O)c1,IC50,Leucine aminopeptidase,14.9 µM (active)
CC(C)NC(=O)c1cc(C(=O)c2cc(Cl)ccc2O)coc1=N,IC50,Leucine aminopeptidase,2.15 µM (active)
CCCn1c(O)c(C#N)c(C)c(CN2CCCC(C)C2)c1=O (stereo unspecified),EC50,[6],> 300 µM (inconclusive)
same,EC50,[7],6.59 µM (active)
same,IC50,cells [8],> 29.9 µM (inactive)
same,EC50,[9],3.04 µM (active)
same,IC50,[10],13 µM (inactive)
same,EC50,cells [11],> 29.9 µM (inactive)
CCC(=O)OCCNc1cc(SCCC(=O)OC)c2nonc2c1[N+](=O)[O-],IC50,[3],> 50 µM (not active)
same,AC50,[12],116 µM (active)
same,EC50,Protein RecA,5.12 µM (active)
same,IC50,H9c2,14.5 µM (active)
O=C(O)CC1S/C(=N/N=C/c2ccc(-c3ccccc3[N+](=O)[O-])o2)NC1=O (stereo unspecified),IC50,[3],> 50 µM (not active)
same,AC50,[12],12.1 µM (active)
same,EC50,Protein RecA,4.31 µM (active)
same,IC50,Genome polyprotein,89 µM (active)
